One series concerns CHIKV DRDE-07. The series is described as follows: In vitro screening against CHIKV (CPE inhibition and MTT cell viability). In kind it is cell-based, chikungunya virus. Particulars: for % Cell viability / CPE: Table S1, CHIKV-infected Vero cells; for % Cell viability / Cell Viability: 72 hpi; for % Cell viability: MTT assay; for CPE: arbitrary score of cytopathic effect at >48 hpi; for Cell Viability: CHIKV-infected Vero cells treated at MNTD, MTT, cell control + DMSO = 100%.

For a further series, the system named is Vero cells. The series can be described thus: Cytotoxicity MTT assay in Vero cells (MNTD, CC50). Type of series: cell-based, African green monkey. (In general: Formazan colour is commonly taken as a measure of viable cells.)
Setting [1] is: maximum nontoxic dose in Vero cells, MTT.

As for `Cc1ccccc1/C=N/NC(=O)c1ccncc1` [DCR30, (E)-N'-(2-methylbenzylidene)isonicotinohydrazide], in the series with CHIKV DRDE-07, the “% Cell viability” value was 23.8% and the CPE entry was “++++ (>60% (++++))”. In addition, the MNTD with Vero cells (Table S1, Vero cells) came to 62.5 µM.
For `CC1=C(C(=O)OCCN(C)C)C(c2ccc(N(C)C)cc2)NC(=S)N1` (stereo not shown) [DCR111, 2‐(dimethylamino)ethyl 4‐[4‐(dimethylamino)phenyl]‐6‐methyl‐2‐sulfanylidene‐1,2,3,4‐tetrahydropyrimidine‐5‐carboxylate], in that order: 10.08%, “++++ (>60% (++++))” and 62.5 µM.
For `O=C(NNC(=O)c1ccccc1Cl)c1cccnc1` [DCR5, N'-(2-chlorobenzoyl)nicotinohydrazide] the same measures were 13.49%, “++++ (>60% (++++))” and 31.25 µM.
For `COc1cc(Br)cc(C2C3=C(CC(C)(C)CC3=O)OC3=C2C(=O)CC(C)(C)C3)c1` [DCR131, 9‐(3‐bromo‐5‐methoxyphenyl)‐3,3,6,6‐tetramethyl‐2,3,4,5,6,7,8,9‐octahydro‐1H‐xanthene‐1,8‐dione] the same measures were 8.01%, “++++ (>60% (++++))” and 125 µM.
`C/C(=N\NC(=O)c1cccnc1)c1ccccc1N` [DCR46, (E)-2-(1-(2-nicotinoylhydrazono)ethyl)benzenaminium]: in the series with CHIKV DRDE-07, the “% Cell viability” value was determined as 27.31% and the CPE result was “++++ (>60% (++++))”. The compound also gave an MNTD in the series on Vero cells (Table S1, Vero cells) of 31.25 µM.
For `Fc1cccc(C2c3c(ccc4ccccc34)Oc3ccc4ccccc4c32)c1` [DCR119, 2‐(3‐fluorophenyl)‐13‐oxapentacyclo[12.8.0.0³,¹².0⁴,⁹.0¹⁷,²²]docosa‐1(14),3,5,7,9,11,15,17(22),18,20‐decaene], in that order: 18.74%, “++++ (>60% (++++))” and 31.25 µM.
For `COc1cccc(C2C3=C(CC(C)(C)CC3=O)OC3=C2C(=O)CC(C)(C)C3)c1` [DCR125, 9‐(3‐methoxyphenyl)‐3,3,6,6‐tetramethyl‐2,3,4,5,6,7,8,9‐octahydro‐1H‐xanthene‐1,8‐dione], in that order: 11.19%, “++++ (>60% (++++))” and 125 µM.
For `O=C(N/N=C/c1ccco1)c1cccnc1` [DCR21, (E)-N'-(furan-2-ylmethylene)nicotinohydrazide] the same measures were 0%, “++++ (>60% (++++))” and 62.5 µM.
In the case of `C#CCOC(=O)C1=C(C)NC(=O)NC1c1ccc(CC)cc1` (stereo not shown) [DCR87, prop-2-yn-1-yl 4-(4-ethylphenyl)-6-methyl-2-oxo-1,2,3,4-tetrahydropyrimidine-5-carboxylate], in the series with CHIKV DRDE-07, the “% Cell viability” value amounted to 11.61% and the CPE result is “++++ (>60% (++++))”. The MNTD with Vero cells (Table S1, Vero cells) is given as 104.58 µM.
`Clc1ncccc1Oc1cc2c(c3ncccc13)Oc1ncccc1O2` [DCR 3, 7-[(2-chloropridin-3-yl)oxy]-5,12-dioxa-1,11-diazatetraphene]: in the series with CHIKV DRDE-07, the “Cell Viability” value came to 69.9% and the CPE entry is on record as “++ (50-30% (++))”. The same compound registered an MNTD in the series with Vero cells (Table S1, Vero cells) of 50 µM. For the same compound, the MNTD with Vero cells (setting [1]) came to 50 µM.
For the compound `O=C(N/N=C/c1ccccc1Br)c1cccnc1` [DCR23, (E)-N'-(2-bromobenzylidene)nicotinohydrazide], in the series on CHIKV DRDE-07, the “% Cell viability” value was determined as 28.01% and the CPE entry is recorded as “++++ (>60% (++++))”. This compound also came in with an MNTD in the series with Vero cells (Table S1, Vero cells) of 15.6 µM.
Regarding `COc1ccc(Br)cc1-c1cc(-c2ccc(O)cc2)nn1C(=O)c1cccnc1` [DCR61, 4-[5-(5-bromo-2-methoxyphenyl)-1-(pyridine-3-carbonyl)-1H-pyrazol-3-yl]phenol], in the series with CHIKV DRDE-07, the “% Cell viability” value is 12.22% and the CPE entry is on record as “++++ (>60% (++++))”. In addition, in the series on Vero cells (Table S1, Vero cells), the MNTD worked out at 31.25 µM.
For `COc1ccc(C2C3=C(CC(C)(C)CC3=O)OC3=C2C(=O)CC(C)(C)C3)cc1` [DCR128, 9‐(4‐methoxyphenyl)‐3,3,6,6‐tetramethyl‐2,3,4,5,6,7,8,9‐octahydro‐1H‐xanthene‐1,8‐dione], in that order: 11.01%, “++++ (>60% (++++))” and 125 µM.
For `CCOc1ccc(-c2cc(-c3ccc(O)cc3)nn2C(=O)c2cccnc2)cc1OC` [DCR58, 4-[5-(4-ethoxy-3-methoxyphenyl)-1-(pyridine-3-carbonyl)-1H-pyrazol-3-yl]phenol], in that order: 8.17%, “++++ (>60% (++++))” and 15.62 µM.
For `O=C(N/N=C/c1ccc(Cl)cc1Cl)c1cccnc1` [DCR26, (E)-N'-(2,4-dichlorobenzylidene)nicotinohydrazide], in that order: 26.11%, “++++ (>60% (++++))” and 31.25 µM.
On to `C#CCOC(=O)C1=C(C)NC(=O)NC1c1ccc(OC)cc1` (stereo not shown) [DCR86, prop-2-yn-1-yl 4-(4-methoxyphenyl)-6-methyl-2-oxo-1,2,3,4-tetrahydropyrimidine-5-carboxylate], for which, in the series on CHIKV DRDE-07, the “% Cell viability” value turned out to be 10.59% and the CPE result is recorded as “++++ (>60% (++++))”. In the series with Vero cells (Table S1, Vero cells), this compound displayed an MNTD of 208.12 µM.
As for `CC(=O)NNC(=O)c1ccncc1` [DCR13, N'-acetylisonicotinohydrazide], in the series on CHIKV DRDE-07, the “% Cell viability” value was found to be 15.07% and the CPE result was “++++ (>60% (++++))”. Moreover, the MNTD in the series on Vero cells (Table S1, Vero cells) came to 62.5 µM.
For `C=CCOC(=O)C1=C(C)NC(=O)NC1c1ccc(OC)cc1` (stereo not shown) [DCR98, prop-2-en-1-yl 4-(4-methoxyphenyl)-6-methyl-2-oxo-1,2,3,4-tetrahydropyrimidine-5-carboxylate] the same measures were 12.66%, “++++ (>60% (++++))” and 413.46 µM.
For `C#CCOC(=O)C1=C(C)NC(=O)NC1c1ccccc1` (stereo not shown) [DCR92, prop-2-yn-1-yl 6-methyl-2-oxo-4-phenyl-1,2,3,4-tetrahydropyrimidine-5-carboxylate] the same measures were 12.8%, “++++ (>60% (++++))” and 462.48 µM.
For `O=C1NC(c2ccc(OC(F)(F)F)cc2)c2c(ccc3ccccc23)O1` (stereo not shown) [DCR71, 1-[4-(trifluoromethoxy)phenyl]-1H,2H,3H-naphtho[1,2-e][1,3]oxazin-3-one], in that order: 7.44%, “++++ (>60% (++++))” and 43.42 µM.
Consider `CC1=C(C(=O)OCCN(C)C)C(c2ccc(N(C)C)cc2)NC(=O)N1` (stereo not shown) [DCR109, 2‐(dimethylamino)ethyl 4‐[4‐(dimethylamino)phenyl]‐6‐methyl‐2‐oxo‐1,2,3,4‐tetrahydropyrimidine‐5‐carboxylate], for which, in the series on CHIKV DRDE-07, the “% Cell viability” value came to 15.11% and the CPE entry was “++++ (>60% (++++))”. The compound further yielded an MNTD in the series on Vero cells (Table S1, Vero cells) of 62.5 µM.
For `CC1(C)CC(=O)C2=C(C1)OC1=C(C(=O)CC(C)(C)C1)C2c1ccc(Cl)cc1` [DCR122, 9‐(4‐chlorophenyl)‐3,3,6,6‐tetramethyl‐2,3,4,5,6,7,8,9‐octahydro‐1H‐xanthene‐1,8‐dione] the same measures were 11.09%, “++++ (>60% (++++))” and 31.25 µM.
For “(E)-N'-(5-bromo-2-methoxybenzylidene)nicotinohydrazide [DCR24]”, in that order: 25.23%, “++++ (>60% (++++))” and 15.6 µM.
In the case of `CC(=O)Cc1noc(-c2ccccc2)n1` [DCR78, 1-(5-phenyl-1,2,4-oxadiazol-3-yl)propan-2-one], in the series with CHIKV DRDE-07, the “% Cell viability” value came out at 17.32% and the CPE result is given as “++++ (>60% (++++))”. Moreover, the MNTD with Vero cells (Table S1, Vero cells) was determined as 125 µM.
For `C/C(=N\NC(=O)c1cccnc1)c1ccc(O)cc1` [DCR45, (E)-N'-(1-(4-hydroxyphenyl)ethylidene)nicotinohydrazide], in that order: 15.55%, “++++ (>60% (++++))” and 31.25 µM.
`CC1(C)CC(=O)C2=C(C1)OC1=C(C(=O)CC(C)(C)C1)C2c1ccccn1` [DCR132, 3,3,6,6‐tetramethyl‐9‐(pyridin‐2‐yl)‐2,3,4,5,6,7,8,9‐octahydro‐1H‐xanthene‐1,8‐dione]: in the series on CHIKV DRDE-07, the “% Cell viability” value worked out at 9.06% and the CPE result is recorded as “++++ (>60% (++++))”. Besides, in the series with Vero cells (Table S1, Vero cells), the MNTD turned out to be 125 µM.
For `CCOc1ccc(/C=N/NC(=O)c2cccnc2)cc1OC` [DCR17, (E)-N'-(4-ethoxy-3-methoxybenzylidene)nicotinohydrazide], in the series on CHIKV DRDE-07, the “% Cell viability” value is given as 0.1% and the CPE entry is “++++ (>60% (++++))”. The same compound yielded an MNTD with Vero cells (Table S1, Vero cells) of 31.25 µM.
For `CCOc1ccc(C2NC(=O)NC(C)=C2C(=O)OCCN(C)C)cc1` (stereo not shown) [DCR72, 2-(dimethylamino)ethyl 4-(4-ethoxyphenyl)-6-methyl-2-oxo-1,2,3,4-tetrahydropyrimidine-5-carboxylate] the same measures were 25.42%, “++++ (>60% (++++))” and 31.25 µM.
For the compound `Nc1nc(N)c2ccc(F)cc2n1` [DCR 136, 7-fluoro-quinazoline-2,4-diamine], in the series with CHIKV DRDE-07, the “Cell Viability” value was 54% and the CPE result is “++ (50-30% (++))”. The MNTD in the series on Vero cells (Table S1, Vero cells) was determined as 250 µM. The compound also had an MNTD with Vero cells (setting [1]) of 250 µM.
For `Cc1ccc(/C=N/NC(=O)c2cccnc2)cc1` [DCR16, (E)-N'-(4-methylbenzylidene)nicotinohydrazide], in the series with CHIKV DRDE-07, the “% Cell viability” value was determined as 18.49% and the CPE result was “++++ (>60% (++++))”. The MNTD with Vero cells (Table S1, Vero cells) was 31.25 µM.
Turning to `C#CCOC(=O)C1=C(C)NC(=O)NC1c1ccc([N+](=O)[O-])cc1` (stereo not shown) [DCR93, prop-2-yn-1-yl 6-methyl-4-(4-nitrophenyl)-2-oxo-1,2,3,4-tetrahydropyrimidine-5-carboxylate], in the series with CHIKV DRDE-07, the “% Cell viability” value is listed as 12.17% and the CPE result is listed as “++++ (>60% (++++))”.

These data come from article PMC10674894 (Viruses, 2023).
